Measured values reported in patent US20260042762A1 (Kymera Therapeutics, Inc., priority 2018, published 2026).
Read-outs that look alike come from different tables or passages of the source.

How the values were obtained:
MerTK [1] = biological target: T1, MerTK (Homo sapiens, UniProt Q12866); assay: MerTk degradation in Jurkat cells (Western blot); assay type: cell-based; conditions: 0.001-1 μM, 4 hour-incubation at 37° C., read-out: Jurkat Max % MerTK Degradation
T1 construct: endogenous in cells; host or cells: Jurkat cells
T1 sequence (Q12866 21-999): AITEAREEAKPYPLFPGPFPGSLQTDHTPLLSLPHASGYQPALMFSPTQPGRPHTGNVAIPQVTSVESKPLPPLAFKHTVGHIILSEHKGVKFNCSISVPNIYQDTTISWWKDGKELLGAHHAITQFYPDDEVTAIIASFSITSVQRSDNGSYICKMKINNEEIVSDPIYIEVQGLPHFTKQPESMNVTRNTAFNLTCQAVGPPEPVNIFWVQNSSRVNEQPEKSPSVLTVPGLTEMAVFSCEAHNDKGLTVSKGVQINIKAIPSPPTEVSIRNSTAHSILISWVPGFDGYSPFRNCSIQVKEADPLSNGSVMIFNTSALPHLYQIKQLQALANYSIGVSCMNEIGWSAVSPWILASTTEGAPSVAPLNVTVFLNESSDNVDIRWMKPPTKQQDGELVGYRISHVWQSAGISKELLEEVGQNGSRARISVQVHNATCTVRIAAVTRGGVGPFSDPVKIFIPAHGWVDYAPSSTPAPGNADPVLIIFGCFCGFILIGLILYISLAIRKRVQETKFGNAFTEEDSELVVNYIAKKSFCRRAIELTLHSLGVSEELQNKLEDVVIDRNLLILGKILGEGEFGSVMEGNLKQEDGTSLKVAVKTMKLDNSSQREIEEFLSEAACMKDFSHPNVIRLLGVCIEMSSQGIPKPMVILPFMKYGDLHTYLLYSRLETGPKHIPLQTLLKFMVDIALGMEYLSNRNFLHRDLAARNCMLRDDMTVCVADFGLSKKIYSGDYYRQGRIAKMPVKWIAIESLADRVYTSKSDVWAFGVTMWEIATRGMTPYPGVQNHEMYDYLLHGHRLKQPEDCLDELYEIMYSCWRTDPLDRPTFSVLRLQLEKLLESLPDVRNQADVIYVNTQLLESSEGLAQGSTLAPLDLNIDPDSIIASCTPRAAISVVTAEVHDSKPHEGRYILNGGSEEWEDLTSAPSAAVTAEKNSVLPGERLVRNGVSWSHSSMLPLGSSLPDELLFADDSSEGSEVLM
In short: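 MerTK degradation was read by near-infrared Western blot, normalized to actin, in BCA-quantified lysates of Jurkat cells exposed to 0.001-1 μM compound for 4 h at 37 °C.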

MerTK [2] = biological target: T2, MerTK (Mus musculus, UniProt Q60805); assay: MerTK degradation in RAW264 cells (Western blot); assay type: cell-based; conditions: RAW264.7, 0.001-1 μM, 4 hour-incubation at 37° C., read-out: RAW264 Max % MerTK Degradation
T2 construct: endogenous in cells; host or cells: RAW264 cells
T2 sequence (Q60805 19-994): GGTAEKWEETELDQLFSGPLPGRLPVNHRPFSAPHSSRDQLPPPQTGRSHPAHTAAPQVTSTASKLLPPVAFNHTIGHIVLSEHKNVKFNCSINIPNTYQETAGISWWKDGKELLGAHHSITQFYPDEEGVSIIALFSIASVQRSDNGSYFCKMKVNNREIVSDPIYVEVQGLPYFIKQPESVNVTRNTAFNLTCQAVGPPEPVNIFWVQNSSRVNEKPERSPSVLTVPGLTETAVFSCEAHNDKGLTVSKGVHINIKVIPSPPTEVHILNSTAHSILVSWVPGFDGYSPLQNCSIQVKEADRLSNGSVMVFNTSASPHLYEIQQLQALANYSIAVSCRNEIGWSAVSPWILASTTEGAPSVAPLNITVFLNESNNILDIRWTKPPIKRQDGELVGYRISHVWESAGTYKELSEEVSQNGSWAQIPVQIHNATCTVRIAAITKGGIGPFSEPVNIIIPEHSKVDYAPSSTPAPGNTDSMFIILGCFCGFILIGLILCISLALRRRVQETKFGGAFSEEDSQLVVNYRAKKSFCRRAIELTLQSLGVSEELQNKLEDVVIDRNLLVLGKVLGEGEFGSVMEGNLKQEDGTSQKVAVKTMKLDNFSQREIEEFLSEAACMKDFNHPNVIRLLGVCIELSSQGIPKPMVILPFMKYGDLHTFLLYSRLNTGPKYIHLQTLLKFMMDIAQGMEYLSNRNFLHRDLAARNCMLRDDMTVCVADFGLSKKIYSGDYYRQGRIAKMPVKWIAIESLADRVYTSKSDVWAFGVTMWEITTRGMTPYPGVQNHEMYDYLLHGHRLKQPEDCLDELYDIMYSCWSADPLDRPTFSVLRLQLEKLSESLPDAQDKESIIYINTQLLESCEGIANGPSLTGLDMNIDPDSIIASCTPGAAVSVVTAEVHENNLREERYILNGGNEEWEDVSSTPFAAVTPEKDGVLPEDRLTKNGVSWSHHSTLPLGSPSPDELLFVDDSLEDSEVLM
Description: Compounds were reconstituted in DMSO to make 10 mM stock solutions. RAW264 cells were maintained in DMEM medium containing 10% FBS. Cells were seeded into 6-well plates with 2×10^6 cells per well. 2 μL of diluted compounds were added to cells to the final concentration of 0.001-1 μM. After a 4 hour-incubation at 37° C., cells were washed with DPBS (1×) once. Then RIPA lysis buffer with Halt Protease and Phosphatase Inhibitor Cocktail was added directly to the cells and cells were then incubated on ice for 10 min, then lysate was harvested into 1.5 mL Eppendorf tubes and centrifuged at 14,000 rpm for 10 min at 4° C. and the supernatants were collected for Western blots.
The protein concentration of cell lysates was quantified with Pierce™ BCA Protein Assay Kit. […] BCA working reagents were prepared by mixing BCA reagent A with reagent B in 50: 1 ratio. 200 μL of the BCA working reagents were added to 25 μL of BCA standard or cell lysates in microplate, and mixed thoroughly on a plate shaker for 30 seconds. After incubation at 37° C. for 30 min, the absorbance of samples at 562 nm were measured with EnVision Plate Reader.
Protein lysates were prepared in NuPAGE™ LDS sample buffer and NuPAGE™ sample reducing agent, and incubated at 95° C. for 5 min. […] The proteins were transferred to low fluorescence PVDF membranes using the Trans-Blot Turbo Transfer System. Membranes were then blocked in Odyssey blocking buffer at RT for 1 h followed by primary incubation at 4° C. overnight. The primary antibodies were MerTK goat polyclonal antibody and actin mouse monoclonal antibody. Membranes were washed three times with TBST (1×), and then incubated with IR Dye 800 CW Donkey anti-goat and IR Dye 700 CW Goat anti-mouse secondary antibodies in 1:10,000 dilution at RT for 1 h. The Western blot images were obtained using Odyssey Imaging System.

| Structure (SMILES) | Dmax (MerTK [1]; Jurkat, 4 h) | Dmax (MerTK [2]) | Dmax (MerTK [1]) |
| --- | --- | --- | --- |
| Cc1ccc(CNc2ncc(-c3ccc(CN4CCN(CCOCCOCCOCCOCCNc5cccc6c5C(=O)N(C5CCC(=O)NC5=O)C6=O)CC4)cn3)c(N[C@H]3CC[C@H](O)CC3)n2)cc1 (stereo partly drawn) [I-21, 2-(2,6-Dioxopiperidin-3-yl)-4-[15-(4-[[6-(2-[[(4-methylphenyl)methyl]amino]-4-[[trans-4-hydroxycyclohexyl]amino]pyrimidin-5-yl)pyridin-3-yl]methyl]piperazin-1-yl)-4,7,10,13-tetraoxa-1-azapentadecan-1-yl]-2,3-dihydro-1H-isoindole-1,3-dione] | 20 to 50% | 20 to 50% |  |
| COCCNc1ncc2c(-c3ccc(CN4CCN(CCOCCOCCOCCOCCNc5cccc6c5C(=O)N(C5CCC(=O)NC5=O)C6=O)CC4)cc3)cn([C@H]3CC[C@H](O)CC3)c2n1 (stereo partly drawn) [I-15, 2-(2,6-Dioxopiperidin-3-yl)-4-(15-[4-[(4-[2-[(2-methoxyethyl)amino]-7-[trans-4-hydroxycyclohexyl]-7H-pyrrolo[2,3-d]pyrimidin-5-yl]phenyl)methyl]piperazin-1-yl]-4,7,10,13-tetraoxa-1-azapentadecan-1-yl)-2,3-dihydro-1H-isoindole-1,3-dione diformate] | > 50% | 20 to 50% |  |
| CCCCNc1ncc2c(-c3ccc(CN4CCN(CCOCCOCCOCCOCCCc5ccc6c(c5)n(C)c(=O)n6C5CCC(=O)NC5=O)CC4)cc3)nn([C@H]3CC[C@H](O)CC3)c2n1 (stereo partly drawn) [I-38, trans-3-(5-[1-[4-([4-[6-(butylamino)-1-[4-hydroxycyclohexyl]-1H-pyrazolo[3,4-d]pyrimidin-3-yl]phenyl]methyl)piperazin-1-yl]-3,6,9,12-tetraoxapentadecan-15-yl]-3-methyl-2-oxo-2,3-dihydro-1H-1,3-benzodiazol-1-yl)piperidine-2,6-dione] | > 50% | > 50% |  |
| CCCCNc1ncc2c(-c3ccc(S(=O)(=O)N4CCN(C(=O)NCCOCCCOCCNc5cccc6c5C(=O)N(C5CCC(=O)NC5=O)C6=O)CC4)cc3)nn([C@H]3CC[C@H](O)CC3)c2n1 (stereo partly drawn) [I-23, 4-((4-(6-(Butylamino)-1-(trans-4-hydroxycyclohexyl)-1H-pyrazolo[3,4-d]pyrimidin-3-yl)phenyl)sulfonyl)-N-(2-(3-(2-((2-(2,6-dioxopiperidin-3-yl)-1,3-dioxoisoindolin-4-yl)amino)ethoxy)propoxy)ethyl)piperazine-1-carboxamide] | > 50% | 20 to 50% |  |
| CCCCNc1ncc2c(-c3ccc(S(=O)(=O)N4CCN(C(=O)CCCCCCCCCCNC(=O)COc5cccc6c5C(=O)N(C5CCC(=O)NC5=O)C6=O)CC4)cc3)nn([C@H]3CC[C@H](O)CC3)c2n1 (stereo partly drawn) [I-28, N-(11-(4-((4-(6-(Butylamino)-1-(trans-4-hydroxycyclohexyl)-1H-pyrazolo[3,4-d]pyrimidin-3-yl)phenyl)sulfonyl)piperazin-1-yl)-11-oxoundecyl)-2-((2-(2,6-dioxopiperidin-3-yl)-1,3-dioxoisoindolin-4-yl)oxy)acetamide] | > 50% | > 50% |  |
| CCCCNc1ncc2c(-c3ccc(S(=O)(=O)N4CCN(C(=O)NCCCOCCCOCCCc5cccc6c5n(C)c(=O)n6C5CCC(=O)NC5=O)CC4)cc3)nn([C@H]3CC[C@H](O)CC3)c2n1 (stereo partly drawn) [I-29, 4-((4-(6-(Butylamino)-1-(trans-4-hydroxycyclohexyl)-1H-pyrazolo[3,4-d]pyrimidin-3-yl)phenyl)sulfonyl)-N-(3-(3-(3-(1-(2,6-dioxopiperidin-3-yl)-3-methyl-2-oxo-2,3-dihydro-1H-benzo[d]imidazol-4-yl)propoxy)propoxy)propyl)piperazine-1-carboxamide] | > 50% | > 50% |  |
| CCCCNc1ncc2c(-c3ccc(CNCCCOCCCOCCCc4cccc5c4n(C)c(=O)n5C4CCC(=O)NC4=O)cc3)cn([C@H]3CC[C@H](O)CC3)c2n1 (stereo partly drawn) [I-6, Trans-3-[4-[3-(3-[3-[([4-[2-(butylamino)-7-[4-hydroxycyclohexyl]-7H-pyrrolo[2,3-d]pyrimidin-5-yl]phenyl]methyl)amino]propoxy]propoxy)propyl]-3-methyl-2-oxo-2,3-dihydro-1H-1,3-benzodiazol-1-yl]piperidine-2,6-dione] |  | > 50% | > 50% |
| O=C1CC[C@H](n2c3cccc(CCCOCCOCCN4CCN(Cc5ccc(-c6cn([C@H]7CC[C@H](O)CC7)c7nc(NCCC(F)(F)F)ncc67)cc5)CC4)c3c3cccnc32)C(=O)N1 [I-134, 3-(5-[3-[2-(2-[4-[(4-[7-[trans-4-hydroxycyclohexy1]-2-[(3,3,3-trifluoropropyl)amino]pyrrolo[2,3-d]pyrimidin-5-yl]phenyl)methyl]piperazin-1-yl]ethoxy)ethoxy]propyl]pyrido[2,3-b]indol-9-y1)piperidine-2,6-dione] | > 50% |  |  |
| Cn1c(=O)n([C@H]2CCC(=O)NC2=O)c2ccc(CCCN3CCC(C4CCN(Cc5ccc(-c6cn([C@H]7CC[C@H](O)CC7)c7nc(NCCC(F)(F)F)ncc67)cc5)CC4)CC3)cc21 [I-137, 3-[3-methyl-2-oxo-5-(3-[1-[(4-[7-[trans-4-hydroxycyclohexyl]-2-[(3,3,3-trifluoropropyl)amino]pyrrolo[2,3-d]pyrimidin-5-yl]phenyl)methyl]-[4,4-bipiperidin]-1-y1]propyl)-1,3-benzodiazol-1-yl]piperidine-2,6-dione] | > 50% |  |  |
